This passage reports AC50, EC50 and IC50 results from ChEMBL document CHEMBL1201862, “PubChem BioAssay data set” (2004).

Structures are written as SMILES. Active and inactive are the calls of the source. A value given as a limit tells only on which side of the number the result lay.

The target of one test is Cytochrome P450 3A4 (Homo sapiens, UniProt P08684).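 Further: CYP3A4 tested as one member of a cytochrome P450 panel screen.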
For a further test, the target named is Cytochrome P450 2C9 (Homo sapiens, UniProt P11712).
The target in test [1] is T1, Heat shock factor protein 1 (Mus musculus, UniProt P38532).
T1 sequence (P38532 whole entry): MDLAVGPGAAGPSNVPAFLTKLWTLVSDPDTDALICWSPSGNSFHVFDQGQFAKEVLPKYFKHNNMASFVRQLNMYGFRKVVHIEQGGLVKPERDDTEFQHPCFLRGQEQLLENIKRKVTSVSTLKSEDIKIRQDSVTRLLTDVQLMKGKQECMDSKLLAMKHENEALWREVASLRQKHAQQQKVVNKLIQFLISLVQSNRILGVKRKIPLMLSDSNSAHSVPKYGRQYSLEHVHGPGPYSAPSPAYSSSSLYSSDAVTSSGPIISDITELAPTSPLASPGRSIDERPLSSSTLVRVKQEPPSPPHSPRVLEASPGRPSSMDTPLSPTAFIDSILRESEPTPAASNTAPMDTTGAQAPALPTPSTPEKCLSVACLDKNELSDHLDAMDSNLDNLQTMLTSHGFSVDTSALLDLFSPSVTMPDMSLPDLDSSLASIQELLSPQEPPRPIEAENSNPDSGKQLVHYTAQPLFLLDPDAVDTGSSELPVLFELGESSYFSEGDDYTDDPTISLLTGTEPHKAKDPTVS
Kind of test: decrease of HSF1-responsive luciferase luminescence – cell-based, NIH3T3, dose retest, confirmation (AID 2382).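 Further: NIH3T3 fibroblasts with HSF1-driven luciferase reporter stressed by proteasome inhibitor MG132; luminescence from HSF1-driven luciferase expression after 8 hours of MG132 stress.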 In kind it is functional.

Test [2] in a line: Luminescence Cell-Based Dose Retest to Confirm Inhibitors of Cancer Stem Cells. [Related pubchem assays (depositor defined):AID2717, AID2721]. In kind it is functional. As to conditions: Homo sapiens.
For test [3], the target named is T2, Rac GTPase-activating protein 1 (Homo sapiens, UniProt Q9H0H5).
T2 sequence (Q9H0H5 whole entry): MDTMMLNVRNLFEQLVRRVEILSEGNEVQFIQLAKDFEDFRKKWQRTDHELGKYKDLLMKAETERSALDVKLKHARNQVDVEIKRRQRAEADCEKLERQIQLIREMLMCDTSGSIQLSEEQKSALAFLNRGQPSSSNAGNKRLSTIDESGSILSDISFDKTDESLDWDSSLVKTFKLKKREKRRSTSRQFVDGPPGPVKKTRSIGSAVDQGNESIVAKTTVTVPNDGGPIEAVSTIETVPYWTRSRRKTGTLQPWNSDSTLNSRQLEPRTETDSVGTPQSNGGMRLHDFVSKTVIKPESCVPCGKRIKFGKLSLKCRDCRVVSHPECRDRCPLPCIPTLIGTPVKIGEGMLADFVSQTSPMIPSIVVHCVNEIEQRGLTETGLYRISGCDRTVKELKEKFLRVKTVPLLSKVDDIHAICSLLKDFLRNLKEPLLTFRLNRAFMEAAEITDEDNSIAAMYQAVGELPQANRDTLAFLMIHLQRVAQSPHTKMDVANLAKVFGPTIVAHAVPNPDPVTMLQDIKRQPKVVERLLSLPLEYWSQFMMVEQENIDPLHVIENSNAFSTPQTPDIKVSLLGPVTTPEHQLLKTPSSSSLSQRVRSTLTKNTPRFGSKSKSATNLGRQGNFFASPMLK
Kind of test: blockers of MgcRacGAP-driven Rac1 GTP hydrolysis – biochemical, ADP Hunter fluorescence, primary and confirmatory, confirmation (AID 624330). The test is classed as functional.

For the next test, the target named is Cytochrome P450 2C19 (Homo sapiens, UniProt P33261). Kind of test: Cytochrome panel assay with activity outcomes. Panel member name: p450-cyp2c19 Compounds with AC50 equal or less than 10 uM are considered active. In kind it is functional. As to conditions: read-out: AC50.
The nature of test [4]: Luminescence Cell-Based Dose Response HTS to Identify Activators of Luciferase Translation or Activity in H4 […] Cells. [Related pubchem assays: 1829 (Project Summary), 1814 (Primary HTS)]. The test is classed as functional.
The subject of a further test is H4. Kind of test: Luminescence Cell-Based Dose Response HTS to Identify Activators of 5'UTR Stem-Loop Driven Prion Protein mRNA Translation in H4 Neuroglioblastoma Cells. [Related pubchem assays: 1829 (Project Summary), 1814 (Primary HTS)]. The test is classed as functional. Particulars: Homo sapiens.
Test [5] is described as follows: Luminescence Cell-Based Dose Confirmation HTS to Identify Activators of 5'UTR Stem-Loop Driven Alpha-Synuclein mRNA Translation in H4 Neuroglioblastoma Cells. [Related pubchem assays: 1829 (Project Summary), 1814 (Primary HTS)]. In kind it is functional.
Test [6] can be described thus: Trypanosoma cruzi growth suppression in host cells – NIH3T3 host cells, beta-gal luminescence, confirmation (AID 2044).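 Further: intracellular parasites grown in NIH/3T3 mouse fibroblasts as host cells; luminescent beta-galactosidase reporter signal from transgenic T. cruzi replicating inside host cells; inhibitors lower the luminescence signal.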 The test is classed as functional, cell-based.
Test [7] is described as follows: NIH3T3 cell viability loss – ATP luminescence, mouse fibroblasts, counter-screen, dose response (AID 2010).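 Further: cells exposed to compound for about 90 hours before reading.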 The test is classed as functional, cell-based. Background: Counterscreens check selectivity or assay interference.
The target in the next test is T3, Cytochrome P450 1A2 (Homo sapiens, UniProt P05177).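 Further: PubChem cytochrome P450 panel assay, CYP1A2 panel member.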
T3 sequence (P05177 whole entry): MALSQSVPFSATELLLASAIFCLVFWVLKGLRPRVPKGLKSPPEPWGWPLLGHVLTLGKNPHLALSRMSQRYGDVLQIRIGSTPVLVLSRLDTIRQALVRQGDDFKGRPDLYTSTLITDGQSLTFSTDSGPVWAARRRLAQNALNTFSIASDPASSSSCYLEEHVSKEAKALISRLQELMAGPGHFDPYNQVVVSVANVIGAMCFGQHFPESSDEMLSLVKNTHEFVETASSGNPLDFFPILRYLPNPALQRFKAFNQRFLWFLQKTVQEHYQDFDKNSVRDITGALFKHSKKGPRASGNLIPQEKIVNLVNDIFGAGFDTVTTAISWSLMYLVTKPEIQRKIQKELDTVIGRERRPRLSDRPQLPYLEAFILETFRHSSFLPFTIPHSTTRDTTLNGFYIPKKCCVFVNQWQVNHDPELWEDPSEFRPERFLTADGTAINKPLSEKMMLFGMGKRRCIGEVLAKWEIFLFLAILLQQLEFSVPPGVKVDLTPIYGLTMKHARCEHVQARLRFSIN

Cytochrome P450 2C9, sequence (P11712 whole entry): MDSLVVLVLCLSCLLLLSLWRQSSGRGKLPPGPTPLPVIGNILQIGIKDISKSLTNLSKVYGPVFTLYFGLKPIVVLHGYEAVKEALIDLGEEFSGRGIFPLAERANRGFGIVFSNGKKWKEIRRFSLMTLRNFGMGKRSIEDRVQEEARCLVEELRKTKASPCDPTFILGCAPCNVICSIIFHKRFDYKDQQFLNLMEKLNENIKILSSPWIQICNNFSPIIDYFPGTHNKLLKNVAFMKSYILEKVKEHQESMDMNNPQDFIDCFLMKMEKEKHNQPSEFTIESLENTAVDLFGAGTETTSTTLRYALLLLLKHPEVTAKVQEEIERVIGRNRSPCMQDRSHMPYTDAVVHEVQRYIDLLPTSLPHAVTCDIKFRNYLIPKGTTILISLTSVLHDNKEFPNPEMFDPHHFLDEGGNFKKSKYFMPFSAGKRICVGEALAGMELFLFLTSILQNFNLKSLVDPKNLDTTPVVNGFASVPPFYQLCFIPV
Cytochrome P450 3A4, sequence (P08684 whole entry): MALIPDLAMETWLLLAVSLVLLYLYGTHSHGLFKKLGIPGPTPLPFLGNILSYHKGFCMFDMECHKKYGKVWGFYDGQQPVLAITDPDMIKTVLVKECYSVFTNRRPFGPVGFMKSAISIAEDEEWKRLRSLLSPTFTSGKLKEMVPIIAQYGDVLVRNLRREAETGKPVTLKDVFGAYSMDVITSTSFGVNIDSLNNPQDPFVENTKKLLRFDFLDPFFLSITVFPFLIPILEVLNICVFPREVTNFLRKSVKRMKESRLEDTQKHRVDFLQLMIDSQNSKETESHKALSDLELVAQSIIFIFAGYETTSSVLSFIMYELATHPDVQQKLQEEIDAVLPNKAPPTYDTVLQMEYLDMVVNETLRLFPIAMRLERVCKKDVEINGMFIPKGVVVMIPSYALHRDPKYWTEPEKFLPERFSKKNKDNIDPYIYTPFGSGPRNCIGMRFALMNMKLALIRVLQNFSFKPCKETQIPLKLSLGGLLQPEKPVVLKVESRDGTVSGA
Cytochrome P450 2C19, sequence (P33261 whole entry): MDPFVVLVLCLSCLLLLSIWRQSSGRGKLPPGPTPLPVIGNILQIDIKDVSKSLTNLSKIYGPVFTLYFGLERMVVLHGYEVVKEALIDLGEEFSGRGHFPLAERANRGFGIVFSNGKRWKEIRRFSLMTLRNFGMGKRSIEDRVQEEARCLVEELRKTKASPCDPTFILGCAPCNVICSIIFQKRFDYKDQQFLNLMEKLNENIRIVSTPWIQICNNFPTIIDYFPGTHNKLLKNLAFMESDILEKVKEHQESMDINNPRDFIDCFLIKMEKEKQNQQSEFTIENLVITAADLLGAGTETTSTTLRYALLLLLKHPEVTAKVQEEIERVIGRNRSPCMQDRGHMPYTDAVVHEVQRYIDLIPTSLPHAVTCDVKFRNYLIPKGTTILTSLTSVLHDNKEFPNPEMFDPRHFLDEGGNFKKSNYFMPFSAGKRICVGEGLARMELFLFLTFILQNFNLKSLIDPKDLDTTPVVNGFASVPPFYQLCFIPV

What is called AC50 is the midpoint of the concentration-response curve, whichever way the signal moves. Turning to `COc1ccc(CCn2c3c(c(=O)[nH]c2=O)C(NC(=O)c2cccs2)(C(F)(F)F)C(=O)N3)cc1OC` (stereo not given), the AC50 at Cytochrome P450 3A4 was 14.1 µM (inconclusive); at Cytochrome P450 2C9 it was 8.91 µM (inconclusive).
Usually EC50 stands for the concentration needed to bring the measured effect to its halfway point. Turning to `CN(C)c1ccc(C2Nc3ccccc3C(=O)N2CCCN2CCOCC2)cc1` (stereo not given), the EC50 in test [1] was 2.02 µM (active).
Consider `Cc1nnc(-c2ccc(Oc3ccc(Cl)cc3)c([N+](=O)[O-])c2)o1`, for which the AC50 in test [2] was < 0.16 µM (active).
Turning to `COC(=O)c1ccc(N2CCN(C(C)=O)CC2)c(NC(=O)COc2ccccc2C)c1`, the EC50 in test [1] is > 195 µM (not active).
By IC50 is commonly meant the concentration needed to halve the response being measured. Take `Fc1ccc(CNCc2ccccc2Cl)cc1`: in test [1], the concentration for a half-maximal effect (EC50) is given as > 195 µM (not active). Also, the IC50 in test [3] was 213 µM (active).
Regarding `CC(C)(C)CC(C)(C)c1cc(O)c(O)c(CN2CCCCC2)c1`, the AC50 is 3.98 µM (inconclusive) on Cytochrome P450 3A4 and 7.94 µM (inconclusive) at Cytochrome P450 2C9.
As for `CCOC(=O)CNC(=O)CSc1nnc(C)c(O)n1`, the EC50 in [1] was > 195 µM (not active).
Turning to `C=CCSc1nc2ccccc2c(=O)n1Cc1ccco1`, the AC50 at Cytochrome P450 2C9 is 3.98 µM (inconclusive).
For `CCN(C(=O)Cn1c([N+](=O)[O-])cnc1C)c1ccccc1`, the EC50 in [1] is on record as > 195 µM (not active).
As to `CCOc1ccc(-n2cc(C(=O)NCc3ccco3)c3cc(OC)c(OC)cc3c2=O)cc1`, the AC50 is 22.4 µM (inconclusive) at Cytochrome P450 3A4 and 4.47 µM (inconclusive) at Cytochrome P450 2C9.
Consider `CC(C)c1ccccc1-n1c(S)nnc1-c1cccnc1`, for which the EC50 in test [1] is reported as > 195 µM (not active).
Same read-out and setting: the value for `COc1ccc(N2CCN(CC(O)COCCOc3ccc(Br)cc3)CC2)cc1` (stereo not given) was > 195 µM (not active).
For the compound `C=CCN=C(S)Nc1ccc2nc(C)c(C)nc2c1`, the half-maximal activity concentration (AC50) on Cytochrome P450 2C9 is 12.6 µM (inconclusive).
On to `COC(=O)C1=CN(Cc2ccc(OC)c(OC)c2)C=C(C(=O)OC)C1c1ccccc1F`, for which, in test [1], the concentration giving a half-maximal response (EC50) is on record as > 195 µM (not active).
For `Cc1nc2cnc(N3CCOCC3)nc2n(Cc2ccc(F)cc2)c1=O`, the half-maximal activity concentration (AC50) at Cytochrome P450 2C9 is 31.6 µM (inconclusive).
For the compound `CCCCN(CC)S(=O)(=O)N1CCC(C(=O)NCCCN2CCOCC2)CC1`, the results for the concentration at half-maximal activity (AC50) at Cytochrome P450 2C19 and at Cytochrome P450 2C9 were 1 µM (inconclusive) and 25.1 µM (inconclusive), respectively.
For `COc1ccc(NC(=O)C2c3cc(OC)c(OC)cc3C(=O)N(C)C2c2cccnc2)cc1OC` (stereo not given), at Cytochrome P450 2C9, the AC50 is 17.8 µM (inconclusive).
In the case of `CC(C)N1C(=O)CN(C2CCCCCC2)C(=O)C1c1ccccc1F` (stereo not given), the concentration giving a half-maximal response (EC50) in test [4] is 20.9 µM (active); with H4, 21 µM (active); in [1], 77.6 µM (active); in test [5], 10.8 µM (active).
In the case of `COC(=O)c1cccc(Nc2cc(C)nc(-c3ccccc3O)n2)c1`, the EC50 in [6] is 2.74 µM (active); in test [7], 7.5 µM (active). The AC50 in [2] is 1.75 µM (active).
As for `O=C(CN1CCCCC1)Nc1cccc2c1OCO2`, the 50% effective concentration (EC50) in test [1] was > 195 µM (not active).
On to `COc1ccc(-c2cn(CCc3c[nH]c4ccccc34)nn2)cc1`, for which, in test [2], the AC50 was 2.86 µM (active).
For the compound `Cc1ccc(F)c(NC(=O)c2ccc(Cn3cc(Cl)cn3)cc2)c1`, the half-maximal effective concentration (EC50) in test [1] is > 195 µM (not active).
For `CC1CCN(c2nc(-c3cccnc3)nc3scc(-c4ccccc4)c23)CC1`, in [2], the concentration at half-maximal activity (AC50) was 1.36 µM (active).
`Cc1ccc(C)c(Cc2c(C)nc3c(C(=O)NCc4ccc5c(c4)OCO5)cnn3c2C)c1`: the results for the 50% effective concentration (EC50) in test [6] and in [7] were 1.61 µM (active) and > 60 µM (not active), respectively. Also, the AC50 in [2] was 4.98 µM (active).
For the compound `Cc1ccc(OCC(=O)NC(=S)Nc2ccccn2)c(Br)c1`, in test [1], the EC50 was < 0.16 µM (active).
Still for that read-out and setting: the value for `CC1C(=O)C(C)C(c2ccco2)NC1c1ccco1` (stereo not given) was > 195 µM (not active).
As to `COc1ccc(-c2cn(-c3ccccc3)nc2CO)cc1`, in test [1], the EC50 is > 195 µM (not active).
Turning to `Cc1cc(C)c2nc(N3CCCC(C(=O)N4CCN(c5ncccn5)CC4)C3)sc2c1` (stereo not given), the concentration at half-maximal activity (AC50) in test [2] is 5.98 µM (active).
On to `CCC[C@@H]1C[C@@]1(CCC)C(NC(=O)OCc1ccccc1)c1ccc(-c2ccccc2)cc1` (stereo not given in full), for which the AC50 at Cytochrome P450 3A4 and at Cytochrome P450 2C9 was 3.98 µM (inconclusive) each time.
With `COC(=O)[C@@]1(Cc2ccc(OC)cc2)[C@H]2c3cc(C(=O)N(C)C)n(CCSCCO)c3C[C@H]2CN1C(=O)c1ccccc1`, the half-maximal activity concentration (AC50) at Cytochrome P450 2C19 was 20 µM (inconclusive); on Cytochrome P450 2C9 it was 12.6 µM (inconclusive).
As for `COC(=O)c1ccc(NC(=O)c2ccccc2)o1`, the AC50 is 17.8 µM (inconclusive) at Cytochrome P450 2C9 and 2.82 µM (inconclusive) on Cytochrome P450 1A2.
In the same order, the values of `COc1ccc(Nc2cc(C(=O)NCCCN3CCN(C)CC3)c3ccccc3n2)cc1` are 14.1 µM (inconclusive) and 10 µM (inconclusive).
As for `CCOc1ccccc1NC(=O)C1=C(C)NC(=O)NC1c1cccc(OC)c1OC` (stereo not given), the half-maximal activity concentration (AC50) on Cytochrome P450 2C9 is 25.1 µM (inconclusive).
On to `CN(C)/N=C/C=C1\CCC/C(=C\c2ccc(F)c(F)c2)C1=O`, for which, in test [2], the AC50 is 8.22 µM (active).
